Where “and” joins values, the source holds several entries; their conditions need not be identical. Identical values can stand only once.
How the values were obtained:
[1] = target: T1, PfPKG (1-853) R484A/Q532A/D533A (Plasmodium falciparum, UniProt Q8I719, D533A/Q532A/R484A); format: biochemical; conditions: triple mutant versus wild type
T1 construct: full-length PfPKG (residues 1–853); His-tag (pQTEV, TEV site) (N, cleaved yes); made in house; host or cells: E. coli TP2000 (delta-cya)
Protocol: (§1) Kinase activity was determined using a microfluidic mobility-shift assay on a Caliper DeskTop Profiler (Caliper Life Sciences, PerkinElmer). […] Reaction mixtures without cyclic nucleotide were used as controls. For electrophoretic separation of substrate and product, a ProfilerPro LabChip (4-sipper mode; Caliper Life Sciences, PerkinElmer) was used under the following conditions: downstream voltage-500 V, upstream voltage-1,900 V with a screening pressure of-1.3 psi.

PfPKG (1-853) Wild Type = target: T2, PfPKG (1-853) Wild Type (Plasmodium falciparum, UniProt Q8I719); format: biochemical
T2 construct: full-length PfPKG (residues 1–853); His-tag (pQTEV, TEV site) (N, cleaved yes); made in house; host or cells: E. coli TP2000 (delta-cya)
Protocol: as §1

PfPKG (1-853) D533A = target: T3, PfPKG (1-853) D533A (Plasmodium falciparum, UniProt Q8I719, D533A); format: biochemical
T3 construct: full-length PfPKG (residues 1–853); His-tag (pQTEV, TEV site) (N, cleaved yes); made in house; host or cells: E. coli TP2000 (delta-cya)
T3 sequence (Q8I719 whole entry D533A, the tested form may be a part): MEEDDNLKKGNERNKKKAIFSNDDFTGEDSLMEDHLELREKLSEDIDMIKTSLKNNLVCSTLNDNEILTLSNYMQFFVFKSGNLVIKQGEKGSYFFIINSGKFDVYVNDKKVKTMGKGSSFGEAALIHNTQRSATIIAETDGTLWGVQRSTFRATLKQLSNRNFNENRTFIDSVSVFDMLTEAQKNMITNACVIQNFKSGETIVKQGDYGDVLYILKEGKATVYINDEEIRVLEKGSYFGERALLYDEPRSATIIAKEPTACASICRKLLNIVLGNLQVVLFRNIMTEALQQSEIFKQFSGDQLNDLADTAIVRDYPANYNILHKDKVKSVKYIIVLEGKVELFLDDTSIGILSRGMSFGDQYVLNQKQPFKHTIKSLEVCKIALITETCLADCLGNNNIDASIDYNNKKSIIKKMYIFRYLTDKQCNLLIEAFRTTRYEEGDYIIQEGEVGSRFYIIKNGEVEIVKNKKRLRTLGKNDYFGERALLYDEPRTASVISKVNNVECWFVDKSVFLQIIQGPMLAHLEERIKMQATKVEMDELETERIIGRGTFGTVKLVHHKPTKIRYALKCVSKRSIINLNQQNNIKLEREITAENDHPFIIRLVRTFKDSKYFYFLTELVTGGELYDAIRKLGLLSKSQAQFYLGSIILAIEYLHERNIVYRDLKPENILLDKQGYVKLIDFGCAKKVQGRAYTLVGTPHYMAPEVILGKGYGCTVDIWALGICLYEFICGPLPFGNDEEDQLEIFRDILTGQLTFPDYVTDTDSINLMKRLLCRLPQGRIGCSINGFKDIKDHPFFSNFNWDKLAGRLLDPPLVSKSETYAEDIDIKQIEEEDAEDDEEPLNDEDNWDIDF
Protocol: as §1

[2] = target: T4, PfPKG PfCNB-B (residues 158–294) (Plasmodium falciparum, UniProt Q8I719); assay: Competition FP assay, isolated PfCNB-B domain; format: binding; conditions: competition with 8-Fluo-cGMP, read-out: EC50 ± SEM (n) competition measurements
T4 construct: 158–294 for CNB-B; His-tag (pQTEV, TEV site) (N, cleaved yes); made in house; host or cells: E. coli TP2000 (delta-cya)
T4 sequence (Q8I719 158-294): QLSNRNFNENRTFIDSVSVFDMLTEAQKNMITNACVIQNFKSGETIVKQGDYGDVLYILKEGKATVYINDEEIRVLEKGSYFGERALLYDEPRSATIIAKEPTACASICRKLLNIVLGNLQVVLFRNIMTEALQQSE
Protocol: (§2) Measurements were performed in 150 mM NaCl, 20 mM MOPS plus 0.005% (w/v) CHAPS pH 7.0 using the Fusion a-FP microtiter plate reader at room temperature in a 384 well microtiterplate (Perkin Elmer, Optiplate, black). […] The KD values were calculated from sigmoidal dose-response curves.
(§3) For competition FP experiments, the protein concentration and the concentration of 8-Fluo-cGMP were fixed to give a polarization signal that was 50% of the maximum value obtained from direct FP measurements. […] FP signals were detected as indicated above. […] The EC50 values were calculated from sigmoidal dose-response curves.

[3] = system: PfPKG with disabled PfCNB-D; set-up: method as in PMID 12817987; conditions: disabling PfCNB-D by mutation of a putative cGMP-binding residue; cited from earlier work
[4] = target: T5, PfCNB-C (residues 275–428) (Plasmodium falciparum, UniProt Q8I719); assay: FP binding measurements, isolated PfCNB-C domain
T5 construct: 275–428 for CNB-C; His-tag (pQTEV, TEV site) (N, cleaved yes); made in house; host or cells: E. coli TP2000 (delta-cya)
T5 sequence (Q8I719 275-428): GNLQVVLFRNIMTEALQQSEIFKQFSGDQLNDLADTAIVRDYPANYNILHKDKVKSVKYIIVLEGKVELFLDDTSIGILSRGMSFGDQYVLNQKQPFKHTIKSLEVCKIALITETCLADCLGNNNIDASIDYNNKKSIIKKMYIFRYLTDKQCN
Excerpt: A manually designed construct consisting of PfPKG amino acids 1–853 with codons optimized for expression in E.coli was synthesized at Life Technologies. All PfPKG constructs were ligated into the His-tagged bacterial expression vector, pQTEV [28]. In designing the expression constructs of each CNB, we used the sequence of the cGMP selective CNB-B that we recently reported. The domain boundaries for the individual constructs are: residues 1–173 for CNB-A, 158–294 for CNB-B, 275–428 for CNB-C and 401–542 for CNB-D. All PfPKG proteins were expressed in TP2000 E. coli. The cells were grown at 37 °C to an OD600nm of 0.6, then induced with 0.5 mM IPTG, and grown for an additional 10 hours at 25 °C. Cells were harvested by centrifugation, then resuspended in 50 mM potassium phosphate (pH 7.5), 500 mM NaCl and 1 mM β-mercaptoethanol, and lysed using a cell disruptor (Constant Systems).
The direct fluorescence polarization (FP) assay was performed following the procedure from Moll et al. Measurements were performed in 150 mM NaCl, 20 mM MOPS plus 0.005% (w/v) CHAPS pH 7.0 using the Fusion a-FP microtiter plate reader at room temperature in a 384 well microtiterplate (Perkin Elmer, Optiplate, black). The protein concentration was varied while the concentration of 8-Fluo-cAMP/8-Fluo-cGMP (Biolog Life Science Institute (Bremen, Germany)) was fixed at 1–5 nM. […] The KD values were calculated from sigmoidal dose-response curves.
For competition FP experiments, the protein concentration and the concentration of 8-Fluo-cGMP were fixed to give a polarization signal that was 50% of the maximum value obtained from direct FP measurements. […] FP signals were detected as indicated above. Data were analyzed with GraphPad Prism 5.03 by plotting the polarization signal in mPol against the logarithm of the cyclic nucleotide concentration. The EC50 values were calculated from sigmoidal dose-response curves.

human PKG Iβ CNB-B = system: human PKG Iβ CNB-B; set-up: method as in PMID 24239458; conditions: cited from earlier work
PfCNB-C = system: PfCNB-C; set-up: method as in PMID 12817987; conditions: cited from earlier work
[5] = target: T6, PfPKG CNB-D (401–542) Q532A (Plasmodium falciparum, UniProt Q8I719, Q532A); format: binding; conditions: PfCNB-D Q532A; read-out: EC50 ± SEM (n) competition experiments
T6 construct: 401–542 for CNB-D; His-tag (pQTEV, TEV site) (N, cleaved yes); made in house; host or cells: E. coli TP2000 (delta-cya)
T6 sequence (Q8I719 401-542 Q532A): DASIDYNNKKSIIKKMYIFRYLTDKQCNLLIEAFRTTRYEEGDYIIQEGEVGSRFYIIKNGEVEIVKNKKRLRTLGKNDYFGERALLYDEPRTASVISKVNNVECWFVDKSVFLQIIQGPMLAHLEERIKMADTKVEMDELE
Protocol: as §2, §3

[6] = target: T7, PfPKG CNB-D (401–542) R484A/Q532A/D533A (Plasmodium falciparum, UniProt Q8I719, D533A/Q532A/R484A); format: binding; conditions: PfCNB-D R484A/Q532A/D533A; read-out: EC50 ± SEM (n) competition experiments
T7 construct: 401–542 for CNB-D; His-tag (pQTEV, TEV site) (N, cleaved yes); made in house; host or cells: E. coli TP2000 (delta-cya)
T7 sequence (Q8I719 401-542 R484A/Q532A/D533A): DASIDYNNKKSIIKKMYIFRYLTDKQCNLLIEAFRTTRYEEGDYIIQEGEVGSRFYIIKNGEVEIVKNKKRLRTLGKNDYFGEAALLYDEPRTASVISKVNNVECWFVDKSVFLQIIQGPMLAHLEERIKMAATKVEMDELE
Protocol: as §2, §3

[7] = target: T8, PfPKG CNB-D (401–542) R484A (Plasmodium falciparum, UniProt Q8I719, R484A); format: binding; conditions: PfCNB-D R484A; read-out: EC50 ± SEM (n) competition experiments
T8 construct: 401–542 for CNB-D; His-tag (pQTEV, TEV site) (N, cleaved yes); made in house; host or cells: E. coli TP2000 (delta-cya)
Protocol: as §2, §3

[8] = target: T9, PfPKG CNB-D (401–542) Wild type (Plasmodium falciparum, UniProt Q8I719); format: binding
T9 construct: 401–542 for CNB-D; His-tag (pQTEV, TEV site) (N, cleaved yes); made in house; host or cells: E. coli TP2000 (delta-cya)
T9 sequence (Q8I719 401-542): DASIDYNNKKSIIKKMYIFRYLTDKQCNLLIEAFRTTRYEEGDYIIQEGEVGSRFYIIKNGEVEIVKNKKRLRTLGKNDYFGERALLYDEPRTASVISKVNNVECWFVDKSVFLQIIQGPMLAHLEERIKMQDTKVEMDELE
Protocol: as §2, §3

[9] = target: T10, PfPKG full regulatory domain (1–542) Q532A (Plasmodium falciparum, UniProt Q8I719, Q532A); format: binding; conditions: read-out: EC50 ± SEM (n) competition experiments
T10 construct: PfPKG full regulatory domain (1–542); His-tag (pQTEV, TEV site) (N, cleaved yes); made in house; host or cells: E. coli TP2000 (delta-cya)
T10 sequence (Q8I719 1-542 Q532A): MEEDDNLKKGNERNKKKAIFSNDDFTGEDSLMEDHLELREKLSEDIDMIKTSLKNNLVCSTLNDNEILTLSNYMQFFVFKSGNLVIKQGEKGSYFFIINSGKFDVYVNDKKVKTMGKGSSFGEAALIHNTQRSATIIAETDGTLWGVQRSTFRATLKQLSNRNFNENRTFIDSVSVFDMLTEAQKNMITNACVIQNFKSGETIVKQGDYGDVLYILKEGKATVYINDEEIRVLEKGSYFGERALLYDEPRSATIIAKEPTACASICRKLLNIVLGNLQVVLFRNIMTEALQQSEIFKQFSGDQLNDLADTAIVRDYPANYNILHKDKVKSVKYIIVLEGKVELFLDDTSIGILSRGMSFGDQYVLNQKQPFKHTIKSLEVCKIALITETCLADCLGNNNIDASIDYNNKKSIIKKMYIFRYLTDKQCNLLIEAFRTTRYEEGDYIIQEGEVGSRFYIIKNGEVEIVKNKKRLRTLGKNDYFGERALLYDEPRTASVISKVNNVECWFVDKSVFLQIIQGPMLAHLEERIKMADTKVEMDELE
Protocol: as §2, §3

[10] = target: T11, PfPKG CNB-D (401–542) D533A (Plasmodium falciparum, UniProt Q8I719, D533A); format: binding; conditions: PfCNB-D D533A; read-out: EC50 ± SEM (n) competition experiments
T11 construct: 401–542 for CNB-D; His-tag (pQTEV, TEV site) (N, cleaved yes); made in house; host or cells: E. coli TP2000 (delta-cya)
T11 sequence (Q8I719 401-542 D533A): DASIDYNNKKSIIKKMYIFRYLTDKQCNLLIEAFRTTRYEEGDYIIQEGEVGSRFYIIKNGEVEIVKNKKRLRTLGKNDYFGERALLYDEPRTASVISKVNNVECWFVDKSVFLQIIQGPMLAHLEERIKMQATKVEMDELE
Protocol: as §2, §3

[11] = target: T12, PfPKG PfCNB-A (residues 1–173) (Plasmodium falciparum, UniProt Q8I719); format: binding; conditions: competition with 8-Fluo-cGMP, read-out: EC50 ± SEM (n) competition measurements
T12 construct: residues 1–173 for CNB-A; His-tag (pQTEV, TEV site) (N, cleaved yes); made in house; host or cells: E. coli TP2000 (delta-cya)
T12 sequence (Q8I719 1-173): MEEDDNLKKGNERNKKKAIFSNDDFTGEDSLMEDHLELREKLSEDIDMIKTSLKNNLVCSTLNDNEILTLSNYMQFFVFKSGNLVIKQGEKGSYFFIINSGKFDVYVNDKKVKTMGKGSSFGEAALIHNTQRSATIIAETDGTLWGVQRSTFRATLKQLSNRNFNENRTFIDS
Protocol: as §2, §3

[12] = target: T13, PfPKG full regulatory domain (1–542) D533A (Plasmodium falciparum, UniProt Q8I719, D533A); format: binding; conditions: read-out: EC50 ± SEM (n) competition experiments
T13 construct: PfPKG full regulatory domain (1–542); His-tag (pQTEV, TEV site) (N, cleaved yes); made in house; host or cells: E. coli TP2000 (delta-cya)
T13 sequence (Q8I719 1-542 D533A): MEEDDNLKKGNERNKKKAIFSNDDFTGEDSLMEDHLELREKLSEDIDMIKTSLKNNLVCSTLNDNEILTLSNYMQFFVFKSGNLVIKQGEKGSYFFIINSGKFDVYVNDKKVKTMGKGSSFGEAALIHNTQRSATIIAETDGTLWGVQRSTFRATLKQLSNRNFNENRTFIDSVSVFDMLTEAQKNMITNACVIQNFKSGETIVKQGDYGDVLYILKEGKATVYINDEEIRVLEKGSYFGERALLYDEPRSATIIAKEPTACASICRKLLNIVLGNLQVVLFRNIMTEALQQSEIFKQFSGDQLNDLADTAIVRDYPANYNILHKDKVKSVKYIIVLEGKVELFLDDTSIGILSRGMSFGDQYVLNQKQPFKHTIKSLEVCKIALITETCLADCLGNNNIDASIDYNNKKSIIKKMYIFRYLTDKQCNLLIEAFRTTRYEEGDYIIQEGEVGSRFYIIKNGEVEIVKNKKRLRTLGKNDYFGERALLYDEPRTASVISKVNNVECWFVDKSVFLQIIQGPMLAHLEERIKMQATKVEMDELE
Protocol: as §2, §3

[13] = target: T14, PfPKG full regulatory domain (1–542) Wild type (Plasmodium falciparum, UniProt Q8I719); format: binding; conditions: read-out: EC50 ± SEM (n) competition experiments
T14 construct: PfPKG full regulatory domain (1–542); His-tag (pQTEV, TEV site) (N, cleaved yes); made in house; host or cells: E. coli TP2000 (delta-cya)
T14 sequence (Q8I719 1-542): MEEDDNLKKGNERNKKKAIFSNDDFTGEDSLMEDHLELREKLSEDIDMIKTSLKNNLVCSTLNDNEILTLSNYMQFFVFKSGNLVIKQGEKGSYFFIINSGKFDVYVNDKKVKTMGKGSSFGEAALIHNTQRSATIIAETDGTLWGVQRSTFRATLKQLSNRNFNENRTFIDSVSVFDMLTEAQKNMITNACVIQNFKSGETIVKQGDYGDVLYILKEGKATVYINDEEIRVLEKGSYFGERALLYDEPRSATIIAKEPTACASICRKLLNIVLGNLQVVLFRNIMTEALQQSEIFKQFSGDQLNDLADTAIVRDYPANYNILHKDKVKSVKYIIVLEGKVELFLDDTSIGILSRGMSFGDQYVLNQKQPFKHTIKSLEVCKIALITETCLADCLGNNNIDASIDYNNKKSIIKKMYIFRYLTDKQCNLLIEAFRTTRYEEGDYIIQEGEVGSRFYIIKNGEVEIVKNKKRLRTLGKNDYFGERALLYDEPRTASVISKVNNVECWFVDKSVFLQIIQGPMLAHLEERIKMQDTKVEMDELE
Protocol: as §2, §3

[14] = target: T15, PfPKG full regulatory domain (1–542) R484A (Plasmodium falciparum, UniProt Q8I719, R484A); format: binding; conditions: read-out: EC50 ± SEM (n) competition experiments
T15 construct: PfPKG full regulatory domain (1–542); His-tag (pQTEV, TEV site) (N, cleaved yes); made in house; host or cells: E. coli TP2000 (delta-cya)
T15 sequence (Q8I719 1-542 R484A): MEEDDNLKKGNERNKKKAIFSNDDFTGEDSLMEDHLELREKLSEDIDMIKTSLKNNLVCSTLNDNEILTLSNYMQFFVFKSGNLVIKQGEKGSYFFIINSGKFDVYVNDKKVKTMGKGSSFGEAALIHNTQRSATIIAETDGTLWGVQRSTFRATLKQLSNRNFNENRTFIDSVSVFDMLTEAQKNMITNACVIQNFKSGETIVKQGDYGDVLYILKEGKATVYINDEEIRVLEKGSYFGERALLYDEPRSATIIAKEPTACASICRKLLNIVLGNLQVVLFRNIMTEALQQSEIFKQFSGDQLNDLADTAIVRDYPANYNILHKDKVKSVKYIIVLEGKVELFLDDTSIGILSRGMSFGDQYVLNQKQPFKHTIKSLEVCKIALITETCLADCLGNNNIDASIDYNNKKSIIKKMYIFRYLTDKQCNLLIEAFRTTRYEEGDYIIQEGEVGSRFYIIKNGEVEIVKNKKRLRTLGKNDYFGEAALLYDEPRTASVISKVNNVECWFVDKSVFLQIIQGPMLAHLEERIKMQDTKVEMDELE
Protocol: as §2, §3

[15] = target: T16, PfPKG full regulatory domain (1–542) R484A/Q532A/D533A (Plasmodium falciparum, UniProt Q8I719, D533A/Q532A/R484A); format: binding; conditions: read-out: EC50 ± SEM (n) competition experiments
T16 construct: PfPKG full regulatory domain (1–542); His-tag (pQTEV, TEV site) (N, cleaved yes); made in house; host or cells: E. coli TP2000 (delta-cya)
Protocol: as §2, §3

[16] = system: P. falciparum PfPKGT618Q-3xHA control line; assay: Growth assay in presence of compound 2, T618Q-3xHA control line; format: cell-based, Plasmodium falciparum; conditions: 1 μM; duration of the experiment 7 days
Protocol: (§4) P. falciparum lines 3D7/attB [22], 3D7/PfPKGT618Q [6], and 3D7/PfPKG-HA [35] were cultured according to standard procedures in human A+ erythrocytes (National Blood Transfusion Service, UK) and RPMI 1640 medium supplemented with 0.5% Albumax type II (Lifetech) and 5 nM WR99210 (Jacobus Pharmaceuticals, New Jersey).
(§5) P. falciparum cultures were synchronised by repeated sorbitol lysis, then either compound 2 (1μM) or DMSO was added to late trophozoites / early schizonts and cultures harvested 16h later to count newly formed ring stage parasites. Cells were fixed in 4% formaldehyde/0.1% glutaraldehyde in PBS for 30 minutes at room temperature, stained with SYBR green (Lifetech) diluted 1:10000 in PBS for 30 minutes, washed with PBS and analysed on a FACSCalibur cell analyser (Becton Dickinson). FACS data were analysed using FlowJo software. For growth assays, starting parasitaemia was 0.2% ring stages and cultured in presence or absence of compound 2 (1 μM). Samples were taken every 48h and fixed, stained, and analyzed as described above.

[17] = system: P. falciparum PfPKGT618Q/R484A-3xHA transgenic line; assay: Growth assay in presence of compound 2, R484A line; format: cell-based, Plasmodium falciparum; conditions: 1 μM; duration of the experiment 7 days
Protocol: as §4, §5

[18] = system: P. falciparum PfPKGT618Q/R484A/Q532A/D533A-3xHA transgenic line; assay: Growth assay in presence of compound 2, triple mutant line; format: cell-based, Plasmodium falciparum; conditions: 1 μM; duration of the experiment 7 days
Protocol: as §4, §5

[19] = system: P. falciparum transgenic lines with the capping triad mutations; assay: Schizont accumulation assay, capping triad mutant lines; format: cell-based, Plasmodium falciparum; conditions: 1 μM; Giemsa-stained blood films
Protocol: as §5, with “Cells were fixed in 4% formaldehyde/0.1% glutaraldehyde in PBS for 30 minutes at room temperature, stained with SYBR green (Lifetech) diluted 1:10000 in PBS for 30 minutes, washed with PBS and analysed on a FACSCalibur cell analyser (Becton Dickinson).” left out

[20] = system: P. falciparum PfPKGT618Q replacement line and PfPKGT618Q-3xHA control line; assay: Schizont accumulation assay, T618Q lines; format: cell-based, Plasmodium falciparum; conditions: 1 μM; Giemsa-stained blood films
PfPKG T618Q mutant = system: PfPKG T618Q mutant; set-up: method as in PMID 18532880, PMID 19915077, PMID 23675297, PMID 24594931; conditions: T618Q gatekeeper substitution; cited from earlier work

T1 sequence (Q8I719 whole entry R484A/Q532A/D533A, the tested form may be a part): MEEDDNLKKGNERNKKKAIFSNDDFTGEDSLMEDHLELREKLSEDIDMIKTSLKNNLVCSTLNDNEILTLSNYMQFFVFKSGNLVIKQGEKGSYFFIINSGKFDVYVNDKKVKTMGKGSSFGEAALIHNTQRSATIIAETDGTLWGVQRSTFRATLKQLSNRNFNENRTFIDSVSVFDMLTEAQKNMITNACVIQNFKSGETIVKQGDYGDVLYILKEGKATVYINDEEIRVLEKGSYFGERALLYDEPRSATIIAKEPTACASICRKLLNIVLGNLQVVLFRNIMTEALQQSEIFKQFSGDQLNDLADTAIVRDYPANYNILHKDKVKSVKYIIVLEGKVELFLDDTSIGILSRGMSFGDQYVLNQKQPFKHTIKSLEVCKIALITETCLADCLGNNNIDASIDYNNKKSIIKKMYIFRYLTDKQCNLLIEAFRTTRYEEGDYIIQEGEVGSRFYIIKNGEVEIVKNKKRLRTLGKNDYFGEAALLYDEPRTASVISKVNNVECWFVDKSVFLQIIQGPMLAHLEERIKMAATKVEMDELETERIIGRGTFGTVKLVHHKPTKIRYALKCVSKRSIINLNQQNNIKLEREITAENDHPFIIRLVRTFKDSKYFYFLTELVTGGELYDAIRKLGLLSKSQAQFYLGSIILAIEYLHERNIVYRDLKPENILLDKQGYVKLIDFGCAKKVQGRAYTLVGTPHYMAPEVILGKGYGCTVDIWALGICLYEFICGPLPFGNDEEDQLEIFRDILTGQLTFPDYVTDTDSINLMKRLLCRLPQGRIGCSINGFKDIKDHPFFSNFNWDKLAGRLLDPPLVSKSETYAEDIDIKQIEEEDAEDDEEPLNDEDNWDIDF

## Nc1nc2c(ncn2[C@@H]2O[C@@H]3COP(=O)(O)O[C@H]3[C@H]2O)c(=O)[nH]1 [cGMP, Cyclic GMP]
[1]
  increase of Ka:cGMP on mutating all three residues: over 28 fold
PfPKG (1-853) Wild Type
  Ka ± SEM (n), activation constant: 66 nM
PfPKG (1-853) D533A
  Ka ± SEM (n), activation constant: 330 nM
[2]
  EC50: 1.2 µM
[3]
  increase in the activation constant for cGMP (Ka:cGMP): 10 fold
[4]
  cGMP binding: little to no binding
Human PKG Iβ CNB-B
  EC50: 0.215 µM
PfCNB-C
  cGMP binding: could not be detected
[5]
  EC50: 2.4 ± 0.1 µM
[6]
  EC50: 7 µM and 7.2 µM
[7]
  EC50: 3.2 ± 0.4 µM
[8]; PfCNB-D wild type, competition with 8-Fluo-cGMP, read-out: EC50 ± SEM (n) competition experiments
  EC50: 0.038 µM and 0.0378 µM
[8]; PfCNB-D, cGMP over cAMP
  selectivity for cGMP: over 190 fold
[9]
  EC50: 2.2 ± 0.1 µM
[10]
  EC50: 0.76 ± 0.04 µM
[11]
  EC50: 1 µM
[12]
  EC50: 0.61 ± 0.05 µM
[13]
  EC50: 0.079 ± 0.004 µM
[14]
  EC50: 0.96 ± 0.02 µM
[15]
  EC50: 1.4 ± 0.1 µM

## CN(C)Cc1ccn2c(-c3ccnc(N)n3)c(-c3ccc(F)cc3)nc2c1 [compound 2]
[16]
  parasite growth in the presence of compound: able to grow at a similar rate to the allelic replacement control line
[17]
  parasite growth in the presence of compound: did not proliferate
[18]
  parasite growth in the presence of compound: did not proliferate
[19]
  progression from schizont to ring stage parasites: did not progress to ring stage parasites
[20]
  ring stage parasites observed: high levels of ring stage parasites
PfPKG T618Q mutant
  sensitivity of the kinase to the inhibitor: no longer sensitive

Source: article PMC4412288, “Crystal Structures of the Carboxyl cGMP Binding Domain of the Plasmodium falciparum cGMP-dependent Protein Kinase Reveal a Novel Capping Triad Crucial for Merozoite Egress” (PLoS Pathogens, 2015)
